The numbers were not newly measured in US10561625B2, “Methods of treatment using sustained release sotalol formulations” (The Roshni Singh 2015 Trust, priority 2004, dated 2020), which cites them from elsewhere.

Counter-ions that a name gives are not always drawn.

Assay in data set [1]: not given
The source holds these as a separate data set.

In the case of `CC(C)NCC(O)c1ccc(NS(C)(=O)=O)cc1` (racemic) [Sotalol, 4′-(2-isopropylaminoethyl-1-hydroxy) methanesulphonanilide hydrochloride], the solubility in water entry was “freely soluble in water”. Further, in data set [1] (administered twice daily), the “elimination (exclusively renal) half-life” value was 8 to 12 h. Besides, in data set [1] (after a dose of the current formulation), the “peak plasma concentration (time)” value was 2 to 3 h. Further, the mean elimination half-life entry in data set [1] (current formulation) is given as “about 12 hours”. The bioavailability in data set [1] (in vivo) is 100%. Besides, the “absorbed after oral ingestion” value in data set [1] (oral, no first-pass hepatic metabolism) is 100%.
As to `COCCc1ccc(OCC(O)CNC(C)C)cc1` (centres unmarked) [Metoprolol], the solubility in water entry was “freely soluble in water”. The plasma half-life in data set [1] (in vivo) is 2.5 to 9.5 h.
